Reference: EP1087941B9, “THIOLESTERS AND USES THEREOF” (THE UNITED STATES OF AMERICA, as represented by THE …, priority 1998, dated 1999)
Like-named read-outs stand apart in the source and are kept apart here.

How the values were obtained:
HIV-1RF = test: XTT cytoprotection assay (antiviral activity); assay type: cell-based
Source text: One exemplary means to determine antiviral activity is with CEM-SS cells and virus (e.g., HIV-1RF) (MOI = 0.01) using the XTT (2,3-bis[2-methoxy- 4-nitro-5-sulfophenyl] -5- [(phenylamino)carbonyl]-2H-tetrazolium hydroxide) cytoprotection assay, as described by Rice (1993) PNAS 90:9721-9724, and Rice (1997) Antimicrob. Agents Chemother. 41:419-426. Briefly, cells are infected with HIV-1RF (or other virus to be tested) in the presence of various dilutions of test compounds (thiolesters and controls). The cultures are incubated for seven days. During this time control cultures without protective compounds (i.e., compounds with anti-viral activity) replicate virus, induce syncytia, and result in about 90% cell death. The cell death is measured by XTT dye reduction. XTT is a soluble tetrazolimn dye that measures mitochondrial energy output, similar to MTT. Positive controls using dextran sulfate (an attachment inhibitor) or 3'-Azido -2'-3'-dideoxythymidine, AZT (a reverse transcriptase inhibitor) are added to each assay. Individual assays are done in duplicate using a sister plate method.
Effective antiviral concentrations providing 50% cytoprotection (EC50), and cellular growth inhibitory concentrations causing 50% cytotoxicity (IC50) are calculated.

Sp1 = molecular target: T1, Sp1 (Homo sapiens, UniProt P08047); test: Sp1 super gel shift EMSA with K562 cell nuclear extracts (specificity); assay type: biochemical; conditions: specificity for CCHC versus CCHH zinc finger
T1 construct: K562 cell nuclear extracts, and antibodies for Sp1 (Spl[PEP2]-G); host or cells: K562 cell nuclear extracts
Description: To determine if compound 44, 45 or 47 binding activity was specific for CCHC zinc fingers, a super gel shift EMSA after treatment of K562 cell nuclear extracts with the compounds was performed. This was followed by super shifting with Spl-specific antibody. Spl was chosen because it is a cellular transcription factor that contains three copies of a classical type CCHH zinc finger motif that are required for Sp1 binding to its DNA target. […] Super gel shifting to determine the specificity of zinc finger reactive compounds was carried out using an Sp1 consensus oligomer (Stratagene, La Jolla, CA), K562 cell nuclear extracts, and antibodies for Sp1 (Spl[PEP2]-G) (extracts and Spl Abs from Santa Cruz Biotechnology, Inc., Santa Cruz, CA). The binding reactions of oligonucleotides with K562 nuclear extract, as well as electrophoretic conditions were carried out as described in the Gelshift Buffer Kit, Stratagene, La Jolla, CA.

U1 cells = test: Cell viability of TNFα-induced U1 cells; assay type: cell-based; conditions: for cellular toxicity: high test dose of 100 µM; for toxicity: higher dose testing (300 µM)
Description: Thiolester compounds were also tested for their ability to inhibit HIV-1 replication in TNFα-induced U1 and ACH-2 cells. U1 cells were induced with 5 ng/ml of TNFα in the presence of various concentrations of the thiolesters 44, 45 or 47. Forty-eight hours later the cultures were characterized for virus p24 antigen production and cell viability. […] Compound 44 killed 60% of the cells at 200 µM. […] Precursor processing evaluation performed as described by Turpin (1997) Antiviral Chem. Chemother. 8:60-69. Thus, thiolester PATEs initiate intracellular disulfide cross-linking of precursor polyproteins during late phase virus assembly and mediate a direct virucidal effect via an attack on the mature NCp7 retroviral zinc fingers in the cell-free virus.

NCp7 = molecular target: T2, NCp7 (Human immunodeficiency virus type 1 group M subtype B, UniProt P03347); test: NCp7 binding to packaging-site oligonucleotide, electrophoretic mobility shift assay; assay type: biochemical, HIV-1; conditions: for concentration at which NCp7-oligonucleotide complex formation was inhibited: EMSA on nondenaturing polyacrylamide gels; for IC50: Table 9, read-out: Nucleic Acid Binding (I50 µM)
T2 construct: within the nucleocapsid p7 (NCp7) protein portion of the polyprotein
Description: Zinc finger reactivity was measured using a Zn specific fluorochrome, TSQ, N-(6-methoxy-8-quinolyl) -p-toluenesulfonamide, assay or a Trp37 zinc finger fluorescence assay. Fluorescent measurements of the Trp37 residue in the C-terminal finger of recombinant HIV-1 NCp7 protein were performed as described by Rice (1995) Science 270:1194-1197; Rice (1997) Antimicrob. Agents Chemother. 41:419-426. Measurement of Zn ejection from both fingers was measured using the Zn-selective fluorchrome probe TSQ (Molecular Probes, Eugene OR) as described by Rice (1996) J. Med. Chem 39:3606-3616. Measurement of the ability of NCp7 to bind to a DNA oligomer, a 44 mer: GGCGACTGGTGAGTACGCCAAAAATTTTGACTAGCGGAGGCTAG (SEQ ID NO:1), analogous to the HIV-1 RNA packaging site was carried out as described by Huang (1998) J. Med. Chem. 41:1371-1381, see also, Rossio (1998) HIV Pathogenesis and Treatment: Keystone Symposium on Molecular and Cellular Biology, Abstract # 4082. Briefly, 50 nM NCp7 was treated with test compounds for 1 hour at RT in […] buffer containing 10% glycerol and 50 mM Tris-HCl (pH 7.5). Labeled oligomer (0.1 picomole, end labeled [^32P]) was added in an equal volume of buffer containing 10% glycerol, 50 mM Tris-HCl (pH 7.5), 400 mM KCl and 40 mM MgCl2. The reaction was continued for 15 min at room temperature, and a total of […] (or 1/4 of the total reaction volume) was separated on nondenaturing 4.5% polyacrylamide gels in 0.5X Tris-Borate electrophoresis buffer. NCp7-oligomer complexes were visualized by autoradiography.
Interaction of zinc finger inhibitors with NCp7 can result in loss of protein structure and their ability to specifically bind oligonucleotides representing the HIV-1ψ packaging site (Huang (1998) supra; Tummino (1997) Antimicrob. Agents Chemother. 41:394-400; South (1993) Protein Sci. 2:3-19; Dannull (1994) EMBO J. 13:1525-1533). The ability of NCp7 to specifically associate with these oligonucleotides after treatment of the protein with a thiolester of the invention was tested. For example, compounds 44, 45 or 47 were very effective at inhibiting Ncp7's ability to associate with target oligonucleotide, as determined using electrophoretic mobility shift assays (EMSA) on nondenaturing polyacrylamide gels. At 1 µM, compound 45 inhibited complex formation. Compounds 44 and 47 inhibited complex formation at 100 µM (see Table 9).

[1] = Human immunodeficiency virus 1, Table 5, XTT cytoprotection assay, read-out: Antiviral Activity EC50
[2] = Human immunodeficiency virus 1, Table 6, XTT cytoprotection assay, read-out: Antiviral Activity EC50%

T1 sequence (P08047 whole entry): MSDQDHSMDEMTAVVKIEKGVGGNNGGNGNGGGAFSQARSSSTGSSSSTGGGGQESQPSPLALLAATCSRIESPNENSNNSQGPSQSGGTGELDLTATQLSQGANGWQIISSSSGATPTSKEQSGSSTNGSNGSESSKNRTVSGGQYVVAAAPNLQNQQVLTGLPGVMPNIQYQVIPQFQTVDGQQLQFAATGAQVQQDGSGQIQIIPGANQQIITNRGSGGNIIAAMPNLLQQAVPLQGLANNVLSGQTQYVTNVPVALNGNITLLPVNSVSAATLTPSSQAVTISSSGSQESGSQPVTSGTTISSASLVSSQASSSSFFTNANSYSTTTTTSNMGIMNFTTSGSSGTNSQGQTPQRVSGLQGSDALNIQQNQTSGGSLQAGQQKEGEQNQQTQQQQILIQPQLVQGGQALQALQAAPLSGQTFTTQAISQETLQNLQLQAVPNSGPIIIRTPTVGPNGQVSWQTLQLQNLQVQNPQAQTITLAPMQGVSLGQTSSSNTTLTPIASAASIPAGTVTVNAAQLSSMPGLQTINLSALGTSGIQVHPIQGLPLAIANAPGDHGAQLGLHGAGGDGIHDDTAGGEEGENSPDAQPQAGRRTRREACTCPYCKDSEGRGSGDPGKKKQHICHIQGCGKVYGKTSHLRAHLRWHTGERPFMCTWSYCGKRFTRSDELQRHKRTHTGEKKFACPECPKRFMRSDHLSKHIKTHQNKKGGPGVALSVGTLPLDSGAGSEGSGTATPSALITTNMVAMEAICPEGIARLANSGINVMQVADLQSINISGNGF

Row | Structure (SMILES) | EC50 (HIV-1RF; [1]) [µM] | EC50 (HIV-1RF; [2]) [µM] | effect on super shifting of Sp1 bound to its DNA target (Sp1) | cells killed (U1 cells; at 200 µM) [%] | cellular toxicity (U1 cells) | concentration at which NCp7-oligonucleotide complex formation was inhibited (NCp7) [µM] | IC50 (NCp7) [µM] | EC50 (HIV-1RF; Human immunodeficiency virus 1, read-out: EC50 (concentration inhibiting 50% virus replication)) [µM] | toxicity (U1 cells) | EC50 (HIV-1RF; Human immunodeficiency virus 1, read-out: Antiviral Activity EC50%) [µM]
1 | CC(=O)NS(=O)(=O)c1ccc(NC(=O)c2ccccc2SC(=O)CCCCBr)cc1 [Compound 44, N-[2-(5-bromovaleroylthio)benzoyl]sulfacetamide] | 3.8 | 38 | failed to alter the pattern of super shifting | 60 | No cellular toxicity was evident | 100 | 100 | – | – | –
2 | CC(=O)NS(=O)(=O)c1ccc(NC(=O)c2ccccc2SC(=O)CCCC[n+]2ccccc2)cc1 [Compound 45, N-[2-(5-pyridinio-valeroylthio)benzoyl]sulfacetamide bromide] | 6.2 | 6.2 | failed to alter the pattern of super shifting | – | No cellular toxicity was evident | 1 | 1 | < 10 | no toxicity | –
3 | O=C(CCCC[n+]1ccccc1)Sc1ccccc1C(=O)Nc1ccc(S(=O)(=O)c2ccc([N+](=O)[O-])cc2)cc1 [Compound 47] | – | – | failed to alter the pattern of super shifting | – | No cellular toxicity was evident | 100 | – | – | no toxicity | 5.5
